This is an account of results in patent US11787855B2, “Egg, fertilized egg, or embryo quality improving agent” (MPO, INC., priority 2016, dated 2023).

In assay [1] the test system is fertilized eggs of aged mice. As to the kind of experiment: In vitro culture of aged mouse embryo, blastocyst reaching rate. The class given is cell-based. The conditions noted are these: fertilized eggs of 42-week-old aged mice, different concentrations, cultured 4 days, control group vs drug treated group (FIG. 2). As for the experimental part:
(§1) Ovulated mature eggs were collected from 42-week-old aged mice and subjected to in vitro fertilization, the obtained fertilized egg (zygote) was in vitro cultured using a culture medium to which a neutralizing antibody of a candidate factor or an antagonist of a specific receptor was added, and the blastocyst reaching rate was determined in order to verify embryo development ability. The obtained blastocysts were embryo transplanted into pseudopregnant mice, for which the implantation rate and the offspring acquisition rate were examined, and the quality of embryos was further evaluated. Specifically, the experiment was carried out as follows.
ICR female mice (CLEA Japan, Inc., Tokyo, Japan) were used as laboratory animals. The mice were bred at a room temperature of 22° C. and a humidity of 55% under light and dark environments every 12 hours. MF control diet (Oriental Yeast Co., ltd., Tokyo, Japan) was given 6 g per mouse per day. Water was allowed to be freely ingested at any time. […]
Mice past 3 weeks and 42 weeks of age confirmed the sexual cycle by vaginal smear. […] After culturing, the sperm was removed from the egg in 30 μl KSOM Medium (Merck Millipore, Darmstadt, Germany), and the number of 2 cell stage embryos was calculated at that time. […] The blastocyst reaching rate was calculated as the number of blastocysts/the number of two cell stage embryos.

The subject of assay [2] is blastocysts of aged mice transplanted into pseudopregnant mice. As to the kind of experiment: Embryo transplantation of aged mouse blastocysts into pseudopregnant mice, implantation rate and offspring acquisition rate. To be noted: only antagonist 10 nM added (FIG. 4). Format: in vivo. As for the experimental part:
as §1
After culturing for 4 days, an embryo reaching a blastocyst stage embryo was transplanted. Recipient mice were ICR female mice of 6 to 10 weeks of age, and mated with ICR male mice vasoligated on the day before a harvesting day, and an individual whose vaginal plug could be confirmed the next day was used. General anesthesia was given with somnopentyl anesthetic, and the uterus was exposed by a back dorsal incision. […] Implantation rate was calculated as the number of implantation traces/the number of embryo transplantations, and the offspring acquisition rate was calculated as the litter size/the number of implantation traces.

The subject of assay [3] is fertilized eggs of young mice. As to the kind of experiment: In vitro culture of young mouse embryo with added CXCL5, blastocyst reaching rate. The class given is cell-based. To be noted: vs non-added control group (FIG. 5). As for the experimental part:
Mice past 3 weeks and 42 weeks of age confirmed the sexual cycle by vaginal smear. 10 IU of gonadotropin (ASKA Pharmaceutical. Co., Tokyo, Japan) was intraperitoneally administered at the time of proestrus. Cumulus oocyte complexes (COCs) were collected from a fallopian tube 15 hours after administration, and precultured for 30 minutes in 100 μl TYH medium (LSI Medience corporation, Tokyo, Japan). Meanwhile, ICR male mice (10-12 weeks old) were subjected to general anesthesia with somnopentyl anesthetic (Kyoritsuseiyaku Corporation, Tokyo, Japan), and cauda epididymis was extracted. A portion of the cauda epididymis was incised, and the internal sperm was extruded and collected. […] After culturing, the sperm was removed from the egg in 30 μl KSOM Medium (Merck Millipore, Darmstadt, Germany), and the number of 2 cell stage embryos was calculated at that time. […] The blastocyst reaching rate was calculated as the number of blastocysts/the number of two cell stage embryos.
In the in vitro culture system of young mouse embryo, whether or not there was a change in blastocyst reaching rate, implantation rate, offspring acquisition rate by adding the candidate factor was examined using a similar method to Example 2. Expression in the embryos of aging markers p16, p21, p53, PAI-1, and IL-6 was measured, and whether or not cell aging was induced was investigated. […]

Assay [4] concerns blastocysts of young mice transplanted into pseudopregnant mice. Put plainly: Embryo transplantation of young mouse blastocysts obtained with added CXCL5 into pseudopregnant mice. Format: in vivo. An excerpt:
After culturing for 4 days, an embryo reaching a blastocyst stage embryo was transplanted. Recipient mice were ICR female mice of 6 to 10 weeks of age, and mated with ICR male mice vasoligated on the day before a harvesting day, and an individual whose vaginal plug could be confirmed the next day was used. General anesthesia was given with somnopentyl anesthetic, and the uterus was exposed by a back dorsal incision. The uterus was fixed with tweezers, a 30 G injection needle (Dentronics, Tokyo, Japan) was drilled at an oviduct joint, a glass capillary with blastocyst aspirated was inserted, and the embryo was transplanted into the uterus. After transplantation, the uterus was carefully returned to the body, and the retroperitoneum and the skin were sutured. At the time of transplantation, blastocysts obtained from mice of each group were transplanted into recipient mice for each individual. Cesarean section was carried out on the 19th day with the next day of egg collection as the first day. Recipient mice were euthanized and underwent laparotomy, and the uterus was extracted and the fetus was removed. Implantation rate was calculated as the number of implantation traces/the number of embryo transplantations, and the offspring acquisition rate was calculated as the litter size/the number of implantation traces.
Based on the method described in Example 2, blastocysts of the control group and the drug treated group were transplanted into pseudopregnant mice. The implantation rate and the offspring acquisition rate were then calculated.

Assay [5] has as its system aging markers (p16, p21, p53, PAI-1, IL-6) in young mouse embryos. As to the kind of experiment: Expression levels of aging markers in embryos by Realtime RT-PCR. The class given is cell-based. The conditions noted are these: embryos to which CXCL5 was added (n=30). As for the experimental part:
In the in vitro culture system of young mouse embryo, whether or not there was a change in blastocyst reaching rate, implantation rate, offspring acquisition rate by adding the candidate factor was examined using a similar method to Example 2. Expression in the embryos of aging markers p16, p21, p53, PAI-1, and IL-6 was measured, and whether or not cell aging was induced was investigated. Specifically, the experiment was carried out as follows.
Expression levels of aging markers (p16, p21, p53, PAI-1, IL-6) in embryos to which CXCL5 was added (n=30) were measured using Realtime RT-PCR.

[6] abbreviates: T-test *P<0.05 vs control (FIG. 7).
The mark [7] stands for this setting: heat-denatured CXCL5 1,000 nM vs control group.

With `O=C(Nc1ccc([N+](=O)[O-])cc1O)Nc1ccccc1Br` [antagonist, SB225002], the blastocyst reaching rate entry in assay [1] is recorded as “no significant difference”. Moreover, in assay [2], the implantation rate result is given as “tended to be higher” and the offspring acquisition rate entry was “tended to be higher”.
As for “CXCL5: CXCL5 (ab9803, abcam), a chemokine, added to young mouse embryo culture”, in assay [3] (CXCL5 100 nM, 300 nM, 1,000 nM, cultured 4 days), the blastocyst reaching rate result is on record as “not significantly different”. The offspring acquisition rate entry in assay [4] (CXCL5-added group vs control group (FIG. 6)) was “no significant difference”. Also, in assay [4] (CXCL5-added group vs control, *P<0.05 (FIG. 6)), the implantation rate entry is “decreased”. In assay [4] (CXCL5 added at 1,000 nM vs non-addition control group (FIG. 6)), the implantation rate entry was “a significant difference was observed”. Also, in assay [5] (setting [6]), the “expression level of IL-6” value is recorded as “significant increase”, the “expression level of PAI-1” value is “significant increase”, the “expression level of p21” value is “significant increase” and the “expression level of p53” value is on record as “significant increase”. For the same compound, the “expression level of p16” value in assay [5] (vs control) is “no significant difference”.
As to “heat-denatured CXCL5: CXCL5 (ab9803, abcam) heat-denatured (95° C., 5 min), used at 1,000 nM”, the blastocyst reaching rate entry in assay [3] (heat-denatured (95° C., 5 min) CXCL5 1,000 nM) is given as “not significantly different”. In assay [4] (setting [7]), the implantation rate entry is given as “no significant difference” and the offspring acquisition rate entry is reported as “no significant difference”.
